Our source for the Kd values is ChEMBL document CHEMBL3991601, “The target landscape of clinical kinase drugs” (Science, 2017).

Assay [1] deals with T1, Ribosyldihydronicotinamide dehydrogenase [quinone] (Homo sapiens, UniProt P16083).
T1 sequence (P16083 whole entry): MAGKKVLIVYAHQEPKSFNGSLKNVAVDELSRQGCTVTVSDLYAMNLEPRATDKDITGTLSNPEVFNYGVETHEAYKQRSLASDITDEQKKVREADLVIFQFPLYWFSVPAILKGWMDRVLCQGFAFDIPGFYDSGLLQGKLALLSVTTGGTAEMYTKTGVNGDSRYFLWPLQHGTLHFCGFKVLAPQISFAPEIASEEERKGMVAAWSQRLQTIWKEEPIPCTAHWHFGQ

For assay [2], the target named is Glycogen synthase kinase-3 alpha (Homo sapiens, UniProt P49840).
Glycogen synthase kinase-3 alpha, sequence (P49840 whole entry): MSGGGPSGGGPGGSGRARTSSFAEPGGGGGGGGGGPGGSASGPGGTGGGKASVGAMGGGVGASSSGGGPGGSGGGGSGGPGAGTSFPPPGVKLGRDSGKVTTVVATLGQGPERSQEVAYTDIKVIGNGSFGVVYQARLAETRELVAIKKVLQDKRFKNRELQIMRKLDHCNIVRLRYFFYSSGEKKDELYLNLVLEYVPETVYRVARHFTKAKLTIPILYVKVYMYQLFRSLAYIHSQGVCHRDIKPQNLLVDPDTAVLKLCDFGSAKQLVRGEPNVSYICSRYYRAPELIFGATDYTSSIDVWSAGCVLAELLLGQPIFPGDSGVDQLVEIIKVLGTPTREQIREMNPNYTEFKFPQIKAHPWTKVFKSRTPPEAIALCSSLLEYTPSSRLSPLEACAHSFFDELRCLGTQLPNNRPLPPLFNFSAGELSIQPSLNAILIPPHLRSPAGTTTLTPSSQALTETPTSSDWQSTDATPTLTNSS
In assay [3] the target is Protein kinase C delta type (Homo sapiens, UniProt Q05655).
Protein kinase C delta type, sequence (Q05655 whole entry): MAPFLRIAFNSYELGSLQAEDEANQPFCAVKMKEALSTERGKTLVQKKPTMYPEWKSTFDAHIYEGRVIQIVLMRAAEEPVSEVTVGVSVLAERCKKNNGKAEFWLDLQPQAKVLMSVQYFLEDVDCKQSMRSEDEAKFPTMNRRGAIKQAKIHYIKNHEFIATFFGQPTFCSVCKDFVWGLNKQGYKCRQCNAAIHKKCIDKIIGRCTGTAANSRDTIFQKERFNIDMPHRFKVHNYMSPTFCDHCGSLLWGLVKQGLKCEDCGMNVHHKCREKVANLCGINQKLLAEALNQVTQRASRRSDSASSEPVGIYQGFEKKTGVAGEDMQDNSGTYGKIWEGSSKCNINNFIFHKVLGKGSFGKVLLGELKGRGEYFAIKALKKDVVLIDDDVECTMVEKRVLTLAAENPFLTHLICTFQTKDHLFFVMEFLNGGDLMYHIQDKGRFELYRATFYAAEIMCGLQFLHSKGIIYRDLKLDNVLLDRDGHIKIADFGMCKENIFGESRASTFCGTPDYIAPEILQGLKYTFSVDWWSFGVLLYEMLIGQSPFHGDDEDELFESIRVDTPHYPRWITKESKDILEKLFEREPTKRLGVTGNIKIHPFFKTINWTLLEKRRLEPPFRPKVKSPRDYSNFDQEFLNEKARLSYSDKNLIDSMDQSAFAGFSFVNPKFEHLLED
For assay [4], the target named is T2, Aurora kinase A (Homo sapiens, UniProt O14965).
T2 sequence (O14965 whole entry): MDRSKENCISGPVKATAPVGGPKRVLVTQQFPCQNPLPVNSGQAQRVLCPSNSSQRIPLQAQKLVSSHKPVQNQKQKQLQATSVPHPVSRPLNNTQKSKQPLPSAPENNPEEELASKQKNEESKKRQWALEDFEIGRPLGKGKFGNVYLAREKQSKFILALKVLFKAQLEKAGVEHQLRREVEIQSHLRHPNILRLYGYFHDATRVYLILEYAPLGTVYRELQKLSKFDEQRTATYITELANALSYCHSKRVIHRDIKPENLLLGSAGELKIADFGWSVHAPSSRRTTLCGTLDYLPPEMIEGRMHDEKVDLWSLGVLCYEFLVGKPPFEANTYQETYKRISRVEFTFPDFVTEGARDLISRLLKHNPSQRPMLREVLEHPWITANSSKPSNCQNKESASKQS

The target of assay [5] is T3, Delta(24)-sterol reductase (Homo sapiens, UniProt Q15392).
T3 sequence (Q15392 whole entry): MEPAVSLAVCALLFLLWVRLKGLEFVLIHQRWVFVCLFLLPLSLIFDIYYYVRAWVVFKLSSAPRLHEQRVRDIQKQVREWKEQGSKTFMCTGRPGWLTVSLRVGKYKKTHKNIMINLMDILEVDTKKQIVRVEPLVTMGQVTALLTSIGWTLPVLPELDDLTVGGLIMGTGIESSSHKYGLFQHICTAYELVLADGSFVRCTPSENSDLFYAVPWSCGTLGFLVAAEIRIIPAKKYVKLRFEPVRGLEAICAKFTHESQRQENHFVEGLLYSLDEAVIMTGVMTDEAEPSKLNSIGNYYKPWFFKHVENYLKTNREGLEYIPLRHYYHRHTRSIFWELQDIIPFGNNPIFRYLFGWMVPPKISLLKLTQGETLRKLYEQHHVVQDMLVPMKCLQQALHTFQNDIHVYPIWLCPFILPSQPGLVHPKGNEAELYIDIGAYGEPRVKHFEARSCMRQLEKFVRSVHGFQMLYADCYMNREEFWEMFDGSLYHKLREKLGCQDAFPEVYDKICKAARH

Assay [6] has as its target S-adenosylmethionine synthase isoform type-2 (Homo sapiens, UniProt P31153).
Assay [7] has as its target Mitogen-activated protein kinase 9 (Homo sapiens, UniProt P45984).
Assay [8] addresses T4, ATP-dependent RNA helicase DDX42 (Homo sapiens, UniProt Q86XP3).
T4 sequence (Q86XP3 whole entry): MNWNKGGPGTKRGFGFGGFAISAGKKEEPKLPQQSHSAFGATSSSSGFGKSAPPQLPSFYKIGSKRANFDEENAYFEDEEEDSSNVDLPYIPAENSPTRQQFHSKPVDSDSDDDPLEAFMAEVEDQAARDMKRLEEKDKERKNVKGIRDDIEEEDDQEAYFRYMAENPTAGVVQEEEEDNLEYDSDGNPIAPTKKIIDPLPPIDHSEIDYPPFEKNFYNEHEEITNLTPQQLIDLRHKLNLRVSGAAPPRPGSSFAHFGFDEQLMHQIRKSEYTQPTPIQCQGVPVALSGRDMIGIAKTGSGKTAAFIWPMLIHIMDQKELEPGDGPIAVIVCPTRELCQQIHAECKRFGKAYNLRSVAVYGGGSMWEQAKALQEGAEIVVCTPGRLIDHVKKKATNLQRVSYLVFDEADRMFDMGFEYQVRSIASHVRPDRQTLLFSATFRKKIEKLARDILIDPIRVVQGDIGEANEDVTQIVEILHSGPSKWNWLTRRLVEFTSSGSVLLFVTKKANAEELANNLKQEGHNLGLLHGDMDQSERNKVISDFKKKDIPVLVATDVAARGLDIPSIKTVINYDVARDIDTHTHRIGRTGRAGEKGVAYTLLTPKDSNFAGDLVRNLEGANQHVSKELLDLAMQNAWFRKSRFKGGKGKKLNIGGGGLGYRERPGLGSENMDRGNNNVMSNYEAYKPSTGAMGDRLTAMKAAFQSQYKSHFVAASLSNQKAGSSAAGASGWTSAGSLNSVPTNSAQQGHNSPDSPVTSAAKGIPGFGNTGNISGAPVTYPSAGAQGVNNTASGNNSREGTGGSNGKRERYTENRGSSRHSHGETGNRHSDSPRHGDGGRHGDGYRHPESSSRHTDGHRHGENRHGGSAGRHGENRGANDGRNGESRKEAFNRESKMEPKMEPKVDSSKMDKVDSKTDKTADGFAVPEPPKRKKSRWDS

Assay [9] deals with Cyclin-dependent kinase 2 (Homo sapiens, UniProt P24941).
Assay [10] deals with Calcium/calmodulin-dependent protein kinase type II subunit gamma (Homo sapiens, UniProt Q13555).
Calcium/calmodulin-dependent protein kinase type II subunit gamma, sequence (Q13555 whole entry): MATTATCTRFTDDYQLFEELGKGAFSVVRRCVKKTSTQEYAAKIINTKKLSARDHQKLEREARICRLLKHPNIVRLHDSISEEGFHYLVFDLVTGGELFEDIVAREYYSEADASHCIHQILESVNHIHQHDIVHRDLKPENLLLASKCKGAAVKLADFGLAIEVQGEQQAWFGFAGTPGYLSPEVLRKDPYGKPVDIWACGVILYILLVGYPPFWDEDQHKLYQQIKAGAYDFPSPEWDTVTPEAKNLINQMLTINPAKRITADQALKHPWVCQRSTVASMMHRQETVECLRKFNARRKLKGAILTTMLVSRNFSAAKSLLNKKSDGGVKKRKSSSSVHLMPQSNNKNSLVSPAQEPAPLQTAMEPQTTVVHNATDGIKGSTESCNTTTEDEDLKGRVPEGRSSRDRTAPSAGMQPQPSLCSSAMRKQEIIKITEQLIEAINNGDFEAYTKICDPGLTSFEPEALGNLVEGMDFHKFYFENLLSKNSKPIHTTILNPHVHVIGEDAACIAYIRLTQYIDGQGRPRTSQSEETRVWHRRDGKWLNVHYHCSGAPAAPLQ
The target of assay [11] is Putative heat shock protein HSP 90-beta 2 (Homo sapiens, UniProt Q58FF8).
Putative heat shock protein HSP 90-beta 2, sequence (Q58FF8 whole entry, canonical isoform): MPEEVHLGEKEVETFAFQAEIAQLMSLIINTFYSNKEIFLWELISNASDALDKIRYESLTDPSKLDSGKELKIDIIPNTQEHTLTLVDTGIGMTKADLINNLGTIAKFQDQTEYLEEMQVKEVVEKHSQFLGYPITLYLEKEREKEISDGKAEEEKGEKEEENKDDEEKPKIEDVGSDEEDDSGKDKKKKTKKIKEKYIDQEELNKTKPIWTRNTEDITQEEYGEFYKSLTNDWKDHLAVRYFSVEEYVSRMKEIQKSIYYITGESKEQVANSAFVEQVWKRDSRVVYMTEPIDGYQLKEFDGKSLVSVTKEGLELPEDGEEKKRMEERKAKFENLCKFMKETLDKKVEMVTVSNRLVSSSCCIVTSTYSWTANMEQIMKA
Assay [12] concerns the target Casein kinase I isoform gamma-1 (Homo sapiens, UniProt Q9HCP0).
Assay [13] addresses T5, Cytochrome c1, heme protein, mitochondrial (Homo sapiens, UniProt P08574).
T5 sequence (P08574 whole entry): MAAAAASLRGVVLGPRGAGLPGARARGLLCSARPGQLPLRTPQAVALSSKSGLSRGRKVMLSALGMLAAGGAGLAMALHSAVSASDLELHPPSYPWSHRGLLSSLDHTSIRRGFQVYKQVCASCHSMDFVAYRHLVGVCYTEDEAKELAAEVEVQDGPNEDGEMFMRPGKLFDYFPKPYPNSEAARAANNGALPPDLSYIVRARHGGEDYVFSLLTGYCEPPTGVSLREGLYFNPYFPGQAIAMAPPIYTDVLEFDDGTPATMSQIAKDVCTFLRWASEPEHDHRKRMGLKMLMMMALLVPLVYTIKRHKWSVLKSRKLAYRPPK

Molecules are shown by their SMILES. Active and inactive are the calls of the source. Cut-off read from the data, not from the text of the source, for most assays here: actives have a measured Kd and inactives only a lower limit.
Note: in the data inactive means no Kd found up to 30 µM.

S-adenosylmethionine synthase isoform type-2, sequence (P31153 whole entry, canonical isoform): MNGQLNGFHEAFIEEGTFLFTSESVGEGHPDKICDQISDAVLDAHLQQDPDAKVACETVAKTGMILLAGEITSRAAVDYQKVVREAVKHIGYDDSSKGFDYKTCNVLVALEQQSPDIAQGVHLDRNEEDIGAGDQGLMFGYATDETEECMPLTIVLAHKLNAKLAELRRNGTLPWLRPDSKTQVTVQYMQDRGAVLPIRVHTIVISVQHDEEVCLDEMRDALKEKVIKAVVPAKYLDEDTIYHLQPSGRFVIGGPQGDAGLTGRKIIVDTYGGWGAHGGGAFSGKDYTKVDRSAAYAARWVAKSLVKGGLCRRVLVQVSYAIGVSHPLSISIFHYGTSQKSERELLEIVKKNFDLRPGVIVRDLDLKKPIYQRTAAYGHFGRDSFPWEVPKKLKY
Mitogen-activated protein kinase 9, sequence (P45984 whole entry): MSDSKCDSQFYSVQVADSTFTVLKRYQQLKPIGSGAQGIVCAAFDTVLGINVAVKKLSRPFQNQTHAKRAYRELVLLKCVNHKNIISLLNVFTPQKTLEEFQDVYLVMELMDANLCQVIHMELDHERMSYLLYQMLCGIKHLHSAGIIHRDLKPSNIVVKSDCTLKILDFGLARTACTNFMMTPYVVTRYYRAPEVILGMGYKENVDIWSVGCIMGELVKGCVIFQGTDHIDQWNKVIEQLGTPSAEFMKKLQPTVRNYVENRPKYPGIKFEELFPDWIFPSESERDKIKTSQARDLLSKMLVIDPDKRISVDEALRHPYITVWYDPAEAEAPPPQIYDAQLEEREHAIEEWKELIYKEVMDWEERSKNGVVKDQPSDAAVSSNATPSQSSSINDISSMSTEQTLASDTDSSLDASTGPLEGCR
Casein kinase I isoform gamma-1, sequence (Q9HCP0 whole entry, canonical isoform): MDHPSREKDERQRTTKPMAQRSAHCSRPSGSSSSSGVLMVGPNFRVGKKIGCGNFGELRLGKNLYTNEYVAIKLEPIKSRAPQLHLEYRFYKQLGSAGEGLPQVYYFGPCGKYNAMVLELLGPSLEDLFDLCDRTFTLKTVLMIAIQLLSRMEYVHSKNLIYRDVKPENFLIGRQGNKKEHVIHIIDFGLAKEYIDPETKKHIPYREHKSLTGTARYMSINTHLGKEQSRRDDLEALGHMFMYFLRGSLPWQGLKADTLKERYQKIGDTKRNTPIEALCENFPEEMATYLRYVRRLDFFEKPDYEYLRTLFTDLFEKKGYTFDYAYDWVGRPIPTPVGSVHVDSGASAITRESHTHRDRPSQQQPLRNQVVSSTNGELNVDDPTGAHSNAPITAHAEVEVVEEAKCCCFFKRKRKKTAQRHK

Regarding `C[C@@H](Oc1cc(C(=O)Nc2ccc(C(=O)N3CCN(C)CC3)cc2)nnc1N)c1c(Cl)ccc(F)c1Cl`, the Kd in assay [1], in assay [2], in [3], in assay [4], in [5] and in [6] was > 30 µM (inactive) each time. In addition, the Kd in assay [7], in [8], in assay [9], in [10], in [11] and in assay [12] was > 30 µM (inactive) throughout.
Regarding `C[C@H]1CNCCCN1S(=O)(=O)c1cccc2cncc(F)c12`, the Kd in [1] was 3.7 µM (active); in assay [2], > 30 µM (inactive); in [3], 2.47 µM (active); in [4] it was > 30 µM (inactive); in assay [5], > 30 µM (inactive); in [6], > 30 µM (inactive). Further, the Kd in [7], in [8], in assay [9], in assay [10], in assay [11] and in assay [12] was > 30 µM (inactive) in each case. The Kd in assay [13] is > 30 µM (inactive).
Regarding `C=CC(=O)N1CCC[C@H](n2c(=O)n(-c3ccc(Oc4ccccc4)cc3)c3c(N)ncnc32)C1`, the Kd in assay [1], in assay [2], in [3], in assay [4], in assay [5] and in assay [6] was > 30 µM (inactive) in each case. Further, the Kd in assay [7], in assay [8], in [9], in [10], in [11] and in assay [12] was > 30 µM (inactive) throughout. Further, in [13], the Kd is > 30 µM (inactive).
For the molecule `Cc1nc2cc(-c3nn(C(C)C)c4ncnc(N)c34)ccc2o1`, the Kd in assay [1], in assay [2], in [3], in [4], in assay [5] and in assay [6] was > 30 µM (inactive) each time. Also, the Kd in assay [7], in assay [8], in assay [9], in assay [10], in assay [11] and in assay [12] was > 30 µM (inactive) in each case. The Kd in [13] is > 30 µM (inactive).
As for `COCc1c(-c2ccc(NC(=O)Nc3cc(C(F)(F)F)ccc3F)c(F)c2)c2c(N)ncnn2c1CN1CCOCC1`, the Kd in assay [1] was > 30 µM (inactive); in [2] it was > 30 µM (inactive); in assay [3], 5.08 µM (active); in assay [4] it was > 30 µM (inactive); in assay [5], > 30 µM (inactive); in [6], > 30 µM (inactive). For the same molecule, the Kd was 1.51 µM (active) in assay [7]; > 30 µM (inactive) in assay [8]; > 30 µM (inactive) in assay [9]; > 30 µM (inactive) in [10]; > 30 µM (inactive) in [11]; > 30 µM (inactive) in [12]. Also, in assay [13], the Kd was > 30 µM (inactive).
As for `C=CC(=O)Nc1cc2c(Nc3ccc(F)c(Cl)c3)ncnc2cc1C#CC(C)(C)N1CCN(C)CC1` [AV-412 FREE BASE], the Kd in [1], in assay [2], in assay [3], in assay [4], in assay [5] and in assay [6] was > 30 µM (inactive) each time. For the same molecule, the Kd in assay [7], in [8], in assay [9], in [10], in assay [11] and in assay [12] was > 30 µM (inactive) in each case. In addition, the Kd in assay [13] is > 30 µM (inactive).
Consider `COc1cc([C@@H]2c3cc4c(cc3[C@H](O)[C@H]3COC(=O)[C@@H]23)OCO4)cc(OC)c1OC` [AXL-1717], for which the Kd in assay [1], in [2], in [3], in assay [4], in [5] and in assay [6] was > 30 µM (inactive) in each case. The Kd in assay [7], in assay [8], in assay [9], in [10], in assay [11] and in [12] was > 30 µM (inactive) in each case. Besides, in [13], the Kd is > 30 µM (inactive).
For `CNC(=O)c1cc(Oc2ccc(NC(=O)Nc3cc(C(C)(C)C)nn3-c3ccc4ncccc4c3)c(F)c2)ccn1` [REBASTINIB], the Kd in assay [1] was > 30 µM (inactive); in [2], > 30 µM (inactive); in [3], > 30 µM (inactive); in assay [4], > 30 µM (inactive); in assay [5] it was > 30 µM (inactive); in assay [7] it was 0.98 µM (active). In addition, the Kd in [8] was > 30 µM (inactive); in [9] it was 0.199 µM (active); in assay [10], > 30 µM (inactive); in assay [11] it was > 30 µM (inactive); in assay [12], > 30 µM (inactive); in [13] it was > 30 µM (inactive).

By Kd is commonly meant the constant that tells how readily two partners part at equilibrium.
